≈ marks a conversion by molar mass, not a printed value. Square brackets hold non-standard residues; d marks the D form. Peptide text beside a SMILES is read from it. Dab = NCC[C@H](N)C(=O)O; Dap = NC[C@H](N)C(=O)O
Tests used:
Settings in all cases: Mueller-Hinton medium, 37°C, 24 h, inoculum 5 × 10^5 CFU/mL; MIC based on three sets of determinations
[1] = tested on: Acinetobacter baumannii MB9941
Method: (§1) The A. baumannii strains used in this study consisted of seven strains resistant to Polymyxin B and Colistin (antibiotics of last resort) obtained from MERCK (M89941, M89949, M89951, M89952, M89953, M89955 and M89963). The MICGM in this case is the geometric mean MIC from the seven Acinetobacter baumannii strains used in this study.
(§2) The minimal inhibitory concentration (MIC) is defined as the lowest peptide concentration that inhibited bacterial growth. MICs were measured by a standard microtiter dilution method in Mueller Hinton (MH) medium. Briefly, cells were grown overnight at 37°C in MH broth and were diluted in the same medium. […] The plates were incubated at 37°C for 24h, and the MICs were determined. The MICGM is the geometric mean of the number of MIC values.

[2] = tested on: Acinetobacter baumannii MB9949
Method: as §1, §2

[3] = tested on: Acinetobacter baumannii MB9951
Method: as §1, §2

[4] = tested on: Acinetobacter baumannii MB9952
Method: as §1, §2

[5] = tested on: Acinetobacter baumannii MB9953
Method: as §1, §2

[6] = tested on: Acinetobacter baumannii MB9955
Method: as §1, §2

[7] = tested on: Acinetobacter baumannii MB9963
Method: as §1, §2

Row | SMILES | MIC MB9941 [1] [µM] | MIC MB9949 [2] [µM] | MIC MB9951 [3] [µM] | MIC MB9952 [4] [µM] | MIC MB9953 [5] [µM] | MIC MB9955 [6] [µM] | MIC MB9963 [7] [µM]
1 | CC(=O)N[C@H](CCCCN)C(=O)N[C@H](CC(C)C)C(=O)N[C@H](CCCCN)C(=O)N[C@H](CO)C(=O)N[C@H](CC(C)C)C(=O)N[C@H](CC(C)C)C(=O)N[C@H](CCCCN)C(=O)N[C@@H](C(=O)N[C@H](CC(C)C)C(=O)N[C@H](CO)C(=O)N[C@H](CCCCN)C(=O)N[C@H](C)C(=O)N[C@H](CCCCN)C(=O)N[C@H](C)C(=O)N[C@H](C)C(=O)N[C@H](CCCCN)C(=O)N[C@H](CC(C)C)C(=O)N[C@H](CCCCN)C(=O)N[C@@H](C(=O)N[C@H](CC(C)C)C(=O)N[C@H](CC(C)C)C(=O)N[C@H](CCCCN)C(=O)N[C@H](C)C(=O)N[C@H](CC(C)C)C(=O)N[C@H](CO)C(=O)N[C@H](CCCCN)C(N)=O)[C@H](C)O)[C@H](C)O [D84(Lys^1-6 Lys-1)] (Ac-[dK][dL][dK][dS][dL][dL][dK][dT][dL][dS][dK][dA][dK][dA][dA][dK][dL][dK][dT][dL][dL][dK][dA][dL][dS][dK]-NH2) | 0.3 (≈ 0.86 µg/mL) | 0.7 (≈ 2.01 µg/mL) | 0.3 (≈ 0.86 µg/mL) | 0.7 (≈ 2.01 µg/mL) | 0.7 (≈ 2.01 µg/mL) | 0.3 (≈ 0.86 µg/mL) | 0.7 (≈ 2.01 µg/mL)
2 | CC(=O)N[C@H](CCCCN)C(=O)N[C@H](CC(C)C)C(=O)N[C@@H](CCN)C(=O)N[C@H](CO)C(=O)N[C@H](CC(C)C)C(=O)N[C@H](CC(C)C)C(=O)N[C@@H](CCN)C(=O)N[C@@H](C(=O)N[C@H](CC(C)C)C(=O)N[C@H](CO)C(=O)N[C@@H](CCN)C(=O)N[C@H](C)C(=O)N[C@H](CCCCN)C(=O)N[C@H](C)C(=O)N[C@H](C)C(=O)N[C@H](CCCCN)C(=O)N[C@H](CC(C)C)C(=O)N[C@@H](CCN)C(=O)N[C@@H](C(=O)N[C@H](CC(C)C)C(=O)N[C@H](CC(C)C)C(=O)N[C@@H](CCN)C(=O)N[C@H](C)C(=O)N[C@H](CC(C)C)C(=O)N[C@H](CO)C(=O)N[C@@H](CCN)C(N)=O)[C@H](C)O)[C@H](C)O [D86(Lys^1-6 Dab-1)] (Ac-[dK][dL][Dab][dS][dL][dL][Dab][dT][dL][dS][Dab][dA][dK][dA][dA][dK][dL][Dab][dT][dL][dL][Dab][dA][dL][dS][Dab]-NH2) | 1.5 (≈ 4.05 µg/mL) | 0.8 (≈ 2.16 µg/mL) | 0.8 (≈ 2.16 µg/mL) | 0.8 (≈ 2.16 µg/mL) | 0.8 (≈ 2.16 µg/mL) | 0.8 (≈ 2.16 µg/mL) | 0.8 (≈ 2.16 µg/mL)
3 | CC(=O)N[C@H](CCCCN)C(=O)N[C@H](CC(C)C)C(=O)N[C@H](CCCCN)C(=O)N[C@H](CO)C(=O)N[C@H](CC(C)C)C(=O)N[C@H](CC(C)C)C(=O)N[C@H](CCCCN)C(=O)N[C@@H](C(=O)N[C@H](CC(C)C)C(=O)N[C@H](CO)C(=O)N[C@H](C)C(=O)N[C@H](C)C(=O)N[C@H](CCCCN)C(=O)N[C@H](CCCCN)C(=O)N[C@H](CCCCN)C(=O)N[C@H](CCCCN)C(=O)N[C@H](CC(C)C)C(=O)N[C@H](C)C(=O)N[C@@H](C(=O)N[C@H](CC(C)C)C(=O)N[C@H](CC(C)C)C(=O)N[C@H](CCCCN)C(=O)N[C@H](C)C(=O)N[C@H](CC(C)C)C(=O)N[C@H](CO)C(=O)N[C@H](CCCCN)C(N)=O)[C@H](C)O)[C@H](C)O [D88(Lys^1-6 Lys-2)] (Ac-[dK][dL][dK][dS][dL][dL][dK][dT][dL][dS][dA][dA][dK][dK][dK][dK][dL][dA][dT][dL][dL][dK][dA][dL][dS][dK]-NH2) | 0.7 (≈ 2.01 µg/mL) | 0.7 (≈ 2.01 µg/mL) | 0.3 (≈ 0.86 µg/mL) | 0.3 (≈ 0.86 µg/mL) | 0.3 (≈ 0.86 µg/mL) | 0.3 (≈ 0.86 µg/mL) | 0.4 (≈ 1.15 µg/mL)
4 | CC(=O)N[C@H](CCCCN)C(=O)N[C@H](CC(C)C)C(=O)N[C@@H](CCN)C(=O)N[C@H](CO)C(=O)N[C@H](CC(C)C)C(=O)N[C@H](CC(C)C)C(=O)N[C@@H](CCN)C(=O)N[C@@H](C(=O)N[C@H](CC(C)C)C(=O)N[C@H](CO)C(=O)N[C@H](C)C(=O)N[C@H](C)C(=O)N[C@H](CCCCN)C(=O)N[C@@H](CCN)C(=O)N[C@@H](CCN)C(=O)N[C@H](CCCCN)C(=O)N[C@H](CC(C)C)C(=O)N[C@H](C)C(=O)N[C@@H](C(=O)N[C@H](CC(C)C)C(=O)N[C@H](CC(C)C)C(=O)N[C@@H](CCN)C(=O)N[C@H](C)C(=O)N[C@H](CC(C)C)C(=O)N[C@H](CO)C(=O)N[C@@H](CCN)C(N)=O)[C@H](C)O)[C@H](C)O [D89(Lys^1-6 Dab-2)] (Ac-[dK][dL][Dab][dS][dL][dL][Dab][dT][dL][dS][dA][dA][dK][Dab][Dab][dK][dL][dA][dT][dL][dL][Dab][dA][dL][dS][Dab]-NH2) | 0.7 (≈ 1.89 µg/mL) | 0.7 (≈ 1.89 µg/mL) | 0.7 (≈ 1.89 µg/mL) | 0.7 (≈ 1.89 µg/mL) | 0.7 (≈ 1.89 µg/mL) | 0.7 (≈ 1.89 µg/mL) | 0.7 (≈ 1.89 µg/mL)
5 | CC(=O)N[C@H](CCCCN)C(=O)N[C@H](CC(C)C)C(=O)N[C@H](CCCCN)C(=O)N[C@H](CO)C(=O)N[C@H](CC(C)C)C(=O)N[C@H](CC(C)C)C(=O)N[C@H](CCCCN)C(=O)N[C@@H](C(=O)N[C@H](CC(C)C)C(=O)N[C@H](CO)C(=O)N[C@H](CCCCN)C(=O)N[C@H](C)C(=O)N[C@H](CCCCN)C(=O)N[C@H](C)C(=O)N[C@H](C)C(=O)N[C@H](CCCCN)C(=O)N[C@H](CC(C)C)C(=O)N[C@H](CCCCN)C(=O)N[C@@H](C(=O)N[C@H](CC(C)C)C(=O)N[C@H](CC(C)C)C(=O)N[C@H](CCCCN)C(=O)N[C@H](C)C(=O)N[C@H](CC(C)C)C(=O)N[C@H](CO)C(=O)N[C@H](CO)C(N)=O)[C@H](C)O)[C@H](C)O [D101(Lys^1Ser^26-5 Lys-1)] (Ac-[dK][dL][dK][dS][dL][dL][dK][dT][dL][dS][dK][dA][dK][dA][dA][dK][dL][dK][dT][dL][dL][dK][dA][dL][dS][dS]-NH2) | 0.7 (≈ 1.98 µg/mL) | 0.7 (≈ 1.98 µg/mL) | 0.7 (≈ 1.98 µg/mL) | 0.7 (≈ 1.98 µg/mL) | 1.5 (≈ 4.24 µg/mL) | 0.7 (≈ 1.98 µg/mL) | 0.7 (≈ 1.98 µg/mL)
6 | CC(=O)N[C@H](CCCCN)C(=O)N[C@H](CC(C)C)C(=O)N[C@@H](CCN)C(=O)N[C@H](CO)C(=O)N[C@H](CC(C)C)C(=O)N[C@H](CC(C)C)C(=O)N[C@@H](CCN)C(=O)N[C@@H](C(=O)N[C@H](CC(C)C)C(=O)N[C@H](CO)C(=O)N[C@H](C)C(=O)N[C@H](C)C(=O)N[C@H](CCCCN)C(=O)N[C@@H](CCN)C(=O)N[C@@H](CCN)C(=O)N[C@H](CCCCN)C(=O)N[C@H](CC(C)C)C(=O)N[C@H](C)C(=O)N[C@@H](C(=O)N[C@H](CC(C)C)C(=O)N[C@H](CC(C)C)C(=O)N[C@@H](CCN)C(=O)N[C@H](C)C(=O)N[C@H](CC(C)C)C(=O)N[C@H](CO)C(=O)N[C@H](CO)C(N)=O)[C@H](C)O)[C@H](C)O [D104(Lys^1Ser^26-5 Dab-2)] (Ac-[dK][dL][Dab][dS][dL][dL][Dab][dT][dL][dS][dA][dA][dK][Dab][Dab][dK][dL][dA][dT][dL][dL][Dab][dA][dL][dS][dS]-NH2) | 0.7 (≈ 1.88 µg/mL) | 0.7 (≈ 1.88 µg/mL) | 0.7 (≈ 1.88 µg/mL) | 0.7 (≈ 1.88 µg/mL) | 1.5 (≈ 4.03 µg/mL) | 0.7 (≈ 1.88 µg/mL) | 0.7 (≈ 1.88 µg/mL)
7 | CC(=O)N[C@H](CCCCN)C(=O)N[C@H](CC(C)C)C(=O)N[C@@H](CN)C(=O)N[C@H](CO)C(=O)N[C@H](CC(C)C)C(=O)N[C@H](CC(C)C)C(=O)N[C@@H](CN)C(=O)N[C@@H](C(=O)N[C@H](CC(C)C)C(=O)N[C@H](CO)C(=O)N[C@H](C)C(=O)N[C@H](C)C(=O)N[C@H](CCCCN)C(=O)N[C@@H](CN)C(=O)N[C@@H](CN)C(=O)N[C@H](CCCCN)C(=O)N[C@H](CC(C)C)C(=O)N[C@H](C)C(=O)N[C@@H](C(=O)N[C@H](CC(C)C)C(=O)N[C@H](CC(C)C)C(=O)N[C@@H](CN)C(=O)N[C@H](C)C(=O)N[C@H](CC(C)C)C(=O)N[C@H](CO)C(=O)N[C@@H](CN)C(N)=O)[C@H](C)O)[C@H](C)O [D106(Lys^1-6 Dap-2)] (Ac-[dK][dL][Dap][dS][dL][dL][Dap][dT][dL][dS][dA][dA][dK][Dap][Dap][dK][dL][dA][dT][dL][dL][Dap][dA][dL][dS][Dap]-NH2) | 0.8 (≈ 2.09 µg/mL) | 0.8 (≈ 2.09 µg/mL) | 1.5 (≈ 3.92 µg/mL) | 0.8 (≈ 2.09 µg/mL) | 0.8 (≈ 2.09 µg/mL) | 0.4 (≈ 1.05 µg/mL) | 0.8 (≈ 2.09 µg/mL)
